According to paper PMC6766655, “AhR–ROR-γt complex is a therapeutic target for MAP4K3/GLK^highIL-17A^high subpopulation of systemic lupus erythematosus” (The FASEB Journal, 2019):

Columns and labels:
HGK (MAP4K4) = target: T1, HGK (MAP4K4) (Homo sapiens, UniProt O95819); experiment: In vitro kinase assay, myelin basic protein as substrate (ADP-Glo); assay type: biochemical; conditions: recombinant kinase domain
T1 construct: Recombinant proteins of kinase domains of various MAP4Ks were used; purchased Promega
T1 sequence (O95819 25-289 limits assumed): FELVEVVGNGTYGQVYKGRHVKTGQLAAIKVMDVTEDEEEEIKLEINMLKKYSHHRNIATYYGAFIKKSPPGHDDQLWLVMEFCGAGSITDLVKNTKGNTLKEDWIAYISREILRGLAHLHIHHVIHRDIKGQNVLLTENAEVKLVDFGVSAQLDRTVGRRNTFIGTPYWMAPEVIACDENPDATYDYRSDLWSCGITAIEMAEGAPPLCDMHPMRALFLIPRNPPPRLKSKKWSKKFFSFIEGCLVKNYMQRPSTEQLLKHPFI

[1] = tested on: GLK-induced NF-κB luciferase activity of CHO-GLK-Luc cells; experiment: Cell-based NF-κB luciferase reporter assay in GLK-transfected CHO-K1 cells; parameters: species or system Chinese hamster; conditions: stable GLK-transfected CHO-K1 cells; Fig. 3A
Experimental: Cell-based high‐throughput screening was conducted against a representative library of 100,000 molecules at ∼10 μM. The Chinese hamster ovary CHO-K1 (ATCC, CCL-61) cells expressing GLK and NF-κB luciferase (Luc) reporter were used. The reaction volume was 5 μl (500 cells) per well in 1536‐well plates. There was no positive control. This high‐throughput screening campaign was successful, with a determined Z' factor of 0.57 ∼ 0.60. […] At the end, 1392 compounds were identified for high inhibition (>80%) of the GLK-induced NF-κB luciferase activity of CHO‐GLK‐Luc cells. These 1392 compounds were further screened for the inhibition of GLK kinase activity by in vitro kinase assays using the kinase-dead PKC-θ protein as the substrate. From the screening, 2 potential small-molecule GLK inhibitors [half maximal inhibitory concentration (IC50) < 10 μM] were identified.
Figure 3 Verteporfin (C1) blocks the AhR–ROR-γt complex in human autoimmune T cells. A) Luciferase activity of NF-κB–driven reporter assays in stable GLK-transfected CHO-K1 cells that were treated with or without C1 under the indicated concentration. The fold changes are presented relative to the value of vector control. […] D) Quantification of the PLA signals shown in panel C. *P < 0.05, ***P < 0.001 (2-tailed Student’s t test).

Lck-GLK Tg mice = experiment: Serum cytokines and autoantibodies (ELISA) in Lck-GLK Tg mice; assay type: in vivo; conditions: 0.4 μg/g body weight i.v. every 3 d
Text: Lck-GLK Tg mice with C57BL/6J backgrounds and GLK-deficient mice with C57BL/6J backgrounds were generated as previously described ([18], [21]). Their respective wild-type littermates with C57BL/6J backgrounds were used as controls. Mice used in this report were either 20-wk-old sex-matched littermates or 8–10-wk-old sex-matched [all female for EAE, all male for collagen-induced arthritis (CIA)] C57BL/6J wild-type mice. All mice used in this study were maintained in temperature-controlled and pathogen-free cages. All animal experiments were performed in the Association for Assessment and Accreditation of Laboratory Animal Care–animal housing facilities at National Health Research Institutes. All mice were used according to the protocols and guidelines approved by the Institutional Animal Care and Use Committee of National Health Research Institutes.
Lck-GLK Tg mice were administered verteporfin (0.4 μg/g body weight) by intravenous injection every 3 d for a period of 30 d (Fig. 4A). […] Moreover, overproduction of autoantibodies (anti-nuclear antibody, anti-dsDNA antibody, and rheumatoid factor) in Lck-GLK Tg mice was also abolished by the verteporfin treatment for 30 d (Fig. 4C). […] To further verify that verteporfin is also effective in IL-17A–mediated animal models, we treated wild-type mice with verteporfin during induction of EAE and CIA.
Figure 4 Verteporfin (C1) suppresses IL-17 production and autoimmune responses in mice. A–C) Effect of C1 administration (0.4 μg/g body weight every 3 d for a period of 30 d) on serum IL-17A and autoantibodies in 20-wk-old Lck-GLK Tg mice. B) ELISA of serum IL-17A, IL-6, TNF-α, IFN-γ, and IL-17F in Lck-GLK Tg mice treated with C1 or PBS for 16 d. C) ELISA of serum autoantibodies in Lck-GLK Tg mice treated with C1 or PBS for 30 d. Means ± SEM are shown; n = 4/group. D) EAE induction in wild-type C57BL/6J mice treated with PBS or C1 (0.4 μg/g body weight every 3 d). Clinical scores are presented on a scale of 1–5. PBS group, n = 10; C1 group, n = 7. E) ELISA of IL-17A in the sera from MOG-immunized mice at day 16. […]

Th17 differentiation = experiment: In vitro Th17 differentiation of splenic T cells (flow cytometry of IL-17A-producing CD4+ T cells); assay type: cell-based, murine; conditions: 1 or 5 μM during differentiation, 3 days
Experimental: Supplementary Figure 5. Verteporfin inhibits both Th17 differentiation and IL-17A production from in vitro differentiated Th17 cells. (A) Flow cytometry of IL-17A-producing CD4^+ T cells. Splenic T cells were co-treated with verteporfin (C1) (1 or 5 μM) during Th17 differentiation in vitro (for 3 days). (B) Flow cytometry of IL-17A-producing CD4^+ T cells. Murine in vitro differentiated Th17 cells were stimulated with PMA plus ionomycin and co-treated with verteporfin (C1) (1 or 5 μM) for 30 min. Data shown are representatives of two independent experiments.

Substance: verteporfin
- IC50 (HGK (MAP4K4)): 4.92 nM
- GLK signaling in cell lines (NF-κB-driven luciferase activity) [1]: efficiently inhibited
- serum levels of IL-6, TNF-α, IFN-γ, and IL-17F (Lck-GLK Tg mice; 16 d): not significantly changed
- serum IL-17A (Lck-GLK Tg mice; 16 d, vs PBS): significantly decreased
- overproduction of autoantibodies (anti-nuclear antibody, anti-dsDNA antibody, rheumatoid factor) (Lck-GLK Tg mice; 30 d): abolished
- Th17 differentiation (Th17 differentiation): inhibited
- Th17 differentiation (Th17 differentiation; listed as Verteporfin): inhibits
